In a melting point compilation (Tetko et al.; mined from patent text by program, amines drawn as free bases though some values may be those of a salt) one finds melting point data, which are given here for 88 molecules.

One may read the melting point as the temperature, or range, at which the solid turns liquid.

`CCOC(=O)c1ccccc1Nc1c([N+](=O)[O-])cc(C(F)(F)F)cc1[N+](=O)[O-]`: the melting point is 152 to 154 °C.
With `Cc1cc(O)nn1-c1ccc(Cl)c(Cl)c1` the figure was 208 to 211 °C.
With `CCCOc1ccccc1-c1nc2cc3c(cc2c(=O)[nH]1)NCN3CC` the figure was 147 to 149 °C; with `C=CCNc1cccnc1S(N)(=O)=O`, 134 to 135 °C.
With `Cc1ccc2sc3cc(C(C)(C)[N+](=O)[O-])ccc3c(=O)c2c1` the figure was 170 to 173 °C; with `C#Cc1c(NC)c(F)cc2c(=O)c(C(=O)O)cn(-c3cc(N)c(F)cc3F)c12`, 208 to 209 °C.
On to `CCc1nn(C2CCCC2)c2cc(C(=O)Nc3ccc(C(=O)NOCc4ccccc4)cc3)ccc12`, for which the melting point is 194 to 198 °C.
With `CNN(NC)C(=O)Nc1cccc2c1C(=O)c1c-2n[nH]c1-c1cccs1` the figure was 279 °C; with `COc1ccccc1N1CCN(CCCOC(=O)Cc2csc(NC(=O)c3ccc(F)cc3)n2)CC1`, 100 °C.
In the case of `COc1cc(OC)c(-c2cc3ccccc3s2)cc1C=CC(=O)c1cc(OC)c(OC)c(OC)c1` it was 194 to 196 °C.
`COc1cc(CBr)ccc1-c1ccccc1` had a melting point of 187 to 189 °C.
In the case of `Clc1nc(Cl)nc(NC2CC2)n1` it was 99 to 101 °C; in that of `O=C1C(=O)c2ccccc2C2=C1SCC(CN1CCC(CO)CC1)O2` (stereo not drawn), 200 to 202 °C; in that of `CN1CC(CCCl)Sc2ncccc2C1=O` (stereo not drawn), 97 to 100 °C.
With `Cc1c(C(N)=O)c2ccccc2n2c(N3CCCC3)nc(-c3noc(C4CC4)n3)c12` the figure was 206 to 209 °C; with `CC1Cc2cc3c(cc2C(c2ccc(Cl)cc2)=NN1c1nccs1)OCO3` (stereo not drawn), 116 to 117 °C.
With `CN1C(=O)Cc2cc(C(=O)[C@H]3CC[C@H]3C(=O)O)ccc21` (relative stereo) the figure was 210 to 212 °C; with `C[C@H]1c2cc(F)ccc2-c2ccc(F)cc2N1S(=O)(=O)c1cccc(O)c1`, 181 to 182 °C.
Consider `Cc1cc(F)ccc1-c1nc(N[C@H]2CC[C@H](O)CC2)nc2c1ccc(=O)n2-c1c(F)cccc1F`, for which the melting point is 158 to 160 °C.
`Cc1nc(-n2ccc(OCCC3CC3)cc2=O)sc1C(=O)NCc1ccc(F)cc1` had a melting point of 172 to 174 °C.
The molecule `COC(=O)Nc1ccc(OCc2nc3ccccc3s2)cc1` registered a melting point of 142 to 144 °C.
With `COC(=O)C(NS(=O)(=O)c1ccc(-c2ccc(NC(=O)c3oc4cccc(C)c4c3C)cc2)cc1)C(C)C` (stereo not drawn) the figure was 199 to 200 °C.
With `CC(C)S(=O)(=O)c1cnc2c(c1)nc(CC(C)(C)C)n2CC1(O)CCOCC1` the figure was 179 °C; with `CC(C)c1ccc(C(=O)CCl)cc1S(N)(=O)=O`, 141 °C; with `CC[C@@]1(O)C(=O)OCc2c1cc1n(c2=O)Cc2c-1nc1ccc(Cl)c3c1c2C(NC(C)=O)CN3` (stereo partly drawn), 250 to 270 °C.
With `COc1c(NC(=O)Nc2ccc(Oc3cc(C)nc(C)n3)c3ccccc23)cc(C(F)(F)F)cc1NS(C)(=O)=O` the figure was 212 to 213 °C; with `CCc1nc(-c2ccccc2)[nH]c(=O)c1C`, 195 to 199 °C; with `O=C(O)c1cc2cccnc2nc1C(=O)O`, 199 to 202 °C.
Molecule `Oc1cc(C(F)(F)F)[nH]n1` yielded a melting point of 211 to 215 °C.
In the case of `Brc1cccc(Nc2nc(OCC3CCCCC3)c3[nH]cnc3n2)c1` it was 204 to 207 °C; in that of `CCCOC(=NC#N)c1ccc(N)nc1`, 150 °C; in that of `Nc1ccc(CCO)c(N)c1`, 67 to 72 °C.
`COc1cc(Cc2cnc(N)nc2N)cc(-c2ccc(CO)cc2)c1OC`: the melting point came out at 86 °C.
For `O=C(NNC(=O)c1ccc([N+](=O)[O-])cc1)c1ccccc1`, the melting point was in the range of 254 to 256 °C.
In the case of `Nc1ccc(Oc2cccc(Oc3ccc(N)c(O)c3)c2)cc1O` it was 171 to 174 °C.
In the case of `N#CCc1cn(Cc2ccc(OCc3ccccc3)cc2)nc1-c1ccc(F)cc1` it was 86 to 87 °C; in that of `O=c1oc(C=Cc2ccccc2)nc2ccccc12`, 145 to 147 °C.
In the case of `CC(C)N(C(=O)CC(c1ccccc1)c1cc(Br)ccc1OCc1ccccc1)C(C)C` (stereo not drawn) it was 102 °C; in that of `O=c1c2cccc(O)c2nc(-c2ccc(OCCN3CCCCC3)cc2)n1-c1ccc(O)cc1`, 153 to 155 °C; in that of `Nc1nc2ccccc2c2c1ncn2CCOC/C=C/c1ccccc1`, 184 °C.
Take `O=C(O)c1ccccc1OCCN1CCC(c2cn(Cc3ccco3)c3cc(F)ccc23)CC1`: the melting point fell in the range of 174 to 175 °C.
With `CCCCCCCCCCCCCCOc1ccc(C(=O)Oc2ccc(-c3ncc(C(=O)O[C@@H](C)CCCCCC)cn3)cc2)cc1` the figure was 85.4 °C.
In the case of `CC1=C(C#N)C(c2ccccc2[N+](=O)[O-])C(C(=O)O)=C(C)N1` (stereo not drawn) it was 225 °C; in that of `O=C1c2ccccc2-c2c1c1cc3c(cc1c(=O)n2CCCNS(=O)(=O)c1ccccc1)OCO3`, 225 to 226 °C; in that of `COC1=C(OC)C(=O)c2c(N)cccc2C1=O`, 116 to 117 °C.
In the case of `N#Cc1cnccc1O` it was 234 to 236 °C; in that of `Cc1cc(NC(=O)c2cccc(CSc3cnccn3)c2)ccc1C(C)C`, 69 to 73 °C.
Turning to `CN1C(=O)N(CCC(=O)O)C(C)(C)C1=O`, the melting point was 103 °C.
In the case of `CC1C(=O)N(c2ccccc2)C(=S)N1c1ccc(Oc2ccccc2Cl)cc1` (stereo not drawn) it was 108 °C.
In the case of `Cc1ccn(-c2ccc(C(=O)N3Cc4cccnc4Nc4ccccc43)c(Cl)c2)n1` it was 192 to 193 °C.
In the case of `[N-]=[N+]=NCC(O)(Cn1cncn1)c1ccc(Cl)cc1Cl` (stereo not drawn) it was 117 to 119 °C; in that of `CCOC(=O)c1cc2cc(C)c(C(F)(F)F)cc2[nH]1`, 176 to 178 °C; in that of `CN1CCN(c2ccc(-c3cnc4c(c3)C(O)CCN4)cn2)CC1` (stereo not drawn), 124 to 128 °C.
`COc1cccc(N2CCN(CC(O)COC(c3ccccc3)c3cccc4ccccc34)CC2)c1` (stereo not drawn): the melting point worked out at 84 °C.
`O=S1(=O)NCN(C2CC2)c2ccc(Br)cc21`: the melting point lay in the range of 178 to 179 °C.
The molecule `N#CCCn1nnc2cc3c(cc2c1=O)OC1CCCN1C3=O` (stereo not drawn) came in with a melting point of 184 to 186 °C.
In the case of `COC(=O)C(C)(C)c1cn2nc(Cl)ccc2n1` it was 92 to 93 °C.
In turn, `COc1cc2c(c3c1OC(C)(C)C3)C(c1ccc(NS(C)(=O)=O)cc1)=NC(C)(C)C2` gave a melting point of 235 to 237 °C.
With `COC(=O)C(=Cc1ccc(OC)c(OC)c1)NC(=O)c1ccccc1` the figure was 135 to 137 °C.
In turn, `CC(C)N1C(=O)NC(c2ccccc2)c2cc3c(cc21)OCO3` (stereo not drawn) displayed a melting point of 165 to 168 °C.
In the case of `C=C(C(=O)c1ccc(OC)c(OC)c1)c1ccc(F)cc1` it was 77 to 78 °C; in that of `C=CCOc1c(C(C)=O)ccc(OCCCOc2ccc3cc(C(=O)OC)oc3c2C)c1CCC`, 80 to 83 °C.
With `Cc1cccc(C)c1N1CCCNC1=S` the figure was 249 to 251 °C; with `CCCCC(C)(CC)C(O)C(Oc1ccc(-c2ccccc2)cc1)n1cncn1` (stereo not drawn), 120 to 122 °C; with `O=C1CC(c2cccc(-n3ccnc3)c2)=Nc2ccc(C#Cc3ccc(F)cc3)cc2N1`, 216 to 218 °C.
With `CCCCNC(=O)c1cccc(-c2ccnc3c(C(=O)c4cccs4)cnn23)c1` the figure was 172 to 174 °C.
In turn, `COC(=O)COc1ccc2c(c1)S(=O)(=O)C=C(c1c(O)c3cc(F)ccc3n(Cc3ccc(F)cc3)c1=O)N2` had a melting point of 200 to 207 °C.
With `CCCCN1CCN(c2cccc3c2C[C@H](NC(C)=O)CC3)CC1` the figure was 118 to 120 °C.
With `CCOC(=O)/C=C/c1cc(OC)c(O)c2c(CC)cccc12` the figure was 75 to 76 °C.
In the case of `O=S1CCN(c2nc(Cl)nc3c(Cl)ncnc23)CC1` it was 195 to 198 °C; in that of `CN1C(=O)CC(=O)N(c2ccccc2)c2ccccc21`, 144 to 146 °C; in that of `CCCCc1nn(-c2cc([N+](=O)[O-])ccc2Cl)c(=O)n1Cc1ccc(-c2ccccc2S(=O)(=O)NC(C)(C)C)cc1F`, 124 to 126 °C.
Take `Cc1n[nH]cc1-c1cccc2c1nnn2-c1ccnc(NC2CCN(S(C)(=O)=O)CC2)n1`: the melting point fell in the range of 231 to 232 °C.
With `Cc1ccc(-c2nc3c(N[C@H]4[C@@H](C(N)=O)[C@@H]5C=C[C@H]4C5)c(Br)cnc3[nH]2)o1` the figure was 200 to 201 °C.
In the case of `NC(=O)C1(/C=C2\CN3C(=O)CC3O2)C=CC=CC1` (stereo not drawn) it was 197 to 199 °C.
In the case of `CCCCc1ncc(C(=O)OCC)c(NCc2ccc(-c3ccccc3-c3nnn[nH]3)cc2)n1` it was 153 to 155 °C; in that of `N#CCn1nnc(NC(=O)C(c2ccccc2)c2ccccc2)n1`, 173 to 174 °C.
`Nc1c(SC(F)(F)F)cnn1-c1c(Cl)cc(C(F)(F)F)cc1Cl` returned a melting point of 113 to 117 °C.
In the case of `CN(C)c1ccc2c(c1)C(=O)CC(c1ccccc1O)=N2` it was 296 to 298 °C.
In the case of `O=C1C(=C2C=Cc3ccccc3C2)CCCC1=C1C=Cc2ccccc2C1` it was 176 °C; in that of `CC(=O)Nc1cccc(C#CCCn2nc3ccccc3n2)n1`, 93 to 94 °C.
In the case of `N#Cc1ccc2c(C#N)c3cc(C#N)ccc3c(C#N)c2c1` it was 345 °C.
For the molecule `CC(C)C#Cc1c(C#N)nn(-c2c(Cl)cc(C(F)(F)F)cc2Cl)c1N`, the melting point fell in the range of 210 to 212 °C.
Take `OC(CCN1CCC(c2ccccc2)CC1)c1ccc(Cc2ccc(Cl)cc2)cc1` (stereo not drawn): the melting point was in the range of 98 to 101 °C.
With `CON(C)C(=O)c1cc(Br)cc([N+](=O)[O-])c1N` the figure was 129 °C; with `C=CCOc1ccc(-c2nc3cnccc3[nH]2)c(OC(C)C)c1`, 179 °C; with `Cc1cscc1NC(=S)NC1CCCCC1N` (stereo not drawn), 205 to 210 °C.
In the case of `COC(=O)CCCNS(=O)(=O)c1cccc2c([N+](=O)[O-])cccc12` it was 102 to 104 °C.
